Measured values as given in article PMC11999743 (Journal of Analytical Methods in Chemistry, 2025).
Where a name gives a salt, the structure may show the parent alone.

Assay: Pharmacokinetic study in naive mice after intraperitoneal injection
Details: 3 mg/kg; for V_F: uncorrected for bioavailability
Description: Nine-week-old male Swiss mice (Janvier Labs, Le Genest-Saint-Isle, France), weighing 35–45 g at the time of experimentation, were used. […] Food and tap water were given ad libitum.
Their hind legs were depilated after a 1 min application of a commercial depilatory cream and rinsed with water. Subsequently, the mice were returned to their cages to allow for recovery and complete anesthesia washout. On the day of the experiment, an initial blood sample (20–30 μL) was collected by perforation of the saphenous vein from the mice.
For each treatment group, mice were subdivided into two cohorts, with blood samples collected at distinct time intervals after injection, totaling 14 time points for pharmacokinetic modeling. Compliance with regulatory directives prevented the collection of more than eight blood samples from individual animals. […] Blood samples were acquired using heparinized capillaries containing 2 μL of sodium heparin (Panpharma, France). After collection, the samples were transferred to Eppendorf tubes and centrifuged at 3000 g and 4°C for 10 min. The recovered plasma was then stored at −80°C until analysis. At the end of the experiments, the mice were euthanized by i.p. lethal injection (150 mg/kg) of sodium pentobarbital (Doléthal, Vétoquinol SA, France).
Pharmacokinetic analysis was carried out from the average concentration values at each time point using the Phoenix WinNonLin Version 8.4 software (Certara, Princeton NJ, USA). Pharmacokinetic parameters were determined from the plasma concentration-time data using a compartmental approach and include the total area under the plasma concentration-time curve (AUC0-∞), elimination half-life (t1/2elim), total clearance (CL/F), and volume of distribution (V). CL and V were uncorrected for the bioavailability (F).

[1] = male, Swiss, mouse, in vivo, ip

CN1[C@@H]2CC[C@H]1C[C@@H](OC(=O)C(CO)c1ccccc1)C2 (stereo partly shown) [Atropine, Atropine sulfate monohydrate]
V_F (naive mice, i.p.): 5.204 ± 0.43 L/kg

C[N+]1(C)[C@@H]2C[C@@H](OC(=O)C(O)(c3cccs3)c3cccs3)C[C@H]1[C@@H]1O[C@@H]12 [Tiotropium, Tiotropium bromide monohydrate]
AUC [1]: 199 ng·h/mL | CL/F [1]: 201 ± 5 mL/min/kg | Cmax [1]: 705 ± 22 ng/mL | Tmax (male, Swiss, mouse, in vivo, ip, T max, naive mice, plasma): 4.9 min | half-life (male, Swiss, mouse, in vivo, ip, t 1/2elim, naive mice, plasma): ~7.5 min | T max (naive mice, i.p., plasma): 4.89 ± 0.24 min | t 1/2elim (naive mice, i.p., plasma): 7.43 ± 0.12 min | V_F (naive mice, i.p.): 2.158 ± 0.075 L/kg | Time after which plasma concentrations were below the LLOQ (naive mice, i.p., LLOQ 0.5 ng/mL tiotropium, 1 ng/mL atropine): 60 min
